Data from ChEMBL document CHEMBL1201862, “PubChem BioAssay data set” (2004).
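96-well plates; 48 h exposure; 5 concentrations. Endpoints by linear interpolation between flanking doses. Not reached: highest tested concentration assigned. Here, GI50 denotes the concentration required for 50% inhibition of growth.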 Calls of active or inactive are those of the source. No stated cut-off is given here; in the data, active = GI50 up to about 1.1 µM and inactive = higher. Starred links: 1 amine or outer side, 2 acyl side, 3 side chain; linkers in the order of their positions; H or OH if unused. Positions of bridges follow the written chain, without caps; N, C: chain ends. Non-standard residues stand in square brackets, D forms with d. Residues, ends and D or L forms follow the SMILES beside them. Chains are numbered I, II in the order given. Actinocin(1to9) = Cc1c2oc3c(C)ccc(C(=O)[*:2])c3nc-2c(C(=O)[*:1])c(N)c1=O; aThr = C[C@H](O)[C@H](N)C(=O)O; NMeV = CN[C@H](C(=O)O)C(C)C; Sar = CNCC(=O)O

Key:
Experiment in all cases: growth of human tumour cells (NCI), 48 h
MOLT-4 = tested on: MOLT-4
COLO 205 = tested on: COLO 205
M14 = tested on: M14
NCI-H522 = tested on: NCI-H522
HOP-62 = tested on: HOP-62
UO-31 = tested on: UO-31
786-0 = tested on: 786-0
SK-MEL-2 = tested on: SK-MEL-2
SR = tested on: SR
SF-539 = tested on: SF-539
OVCAR-5 = tested on: OVCAR-5
UACC-62 = tested on: UACC-62
MCF7 = tested on: MCF7
EKVX = tested on: EKVX
LOX IMVI = tested on: LOX IMVI
SK-MEL-28 = tested on: SK-MEL-28
T47D = tested on: T47D
A549 = tested on: A549
MDA-MB-435 = tested on: MDA-MB-435
CCRF-CEM = tested on: CCRF-CEM

Measured: GI50

Cc1c2oc3c(C)ccc(C(=O)N[C@@H]4C(=O)N[C@H](C(C)C)C(=O)N5CCC[C@H]5C(=O)N(C)CC(=O)N(C)[C@@H](C(C)C)C(=O)O[C@H]4C)c3nc-2c(C(=O)N[C@@H]2C(=O)N[C@H](C(C)C)C(=O)N3CCC[C@H]3C(=O)N(C)CC(=O)N(C)[C@@H](C(C)C)C(=O)O[C@H]2C)c(N)c1=O (I: [aThr][dV]P[Sar][NMeV] / II: [aThr][dV]P[Sar][NMeV]; ester I:1-I:C, II:1-II:C; linker I:N-II:N via Actinocin(1to9))
active: MOLT-4 0.48 nM | COLO 205 1.06 nM | M14 5.28 nM | NCI-H522 0.506 nM | HOP-62 2.17 nM | UO-31 15 nM | 786-0 0.951 nM | SK-MEL-2 1.06 nM | SR 0.31 nM | SF-539 0.899 nM | OVCAR-5 6.11 nM | UACC-62 0.935 nM | MCF7 0.189 nM | EKVX 12 nM | LOX IMVI 0.518 nM | SK-MEL-28 1.39 nM | T47D 0.628 nM | A549 2.06 nM | MDA-MB-435 0.871 nM | CCRF-CEM 0.863 nM
